# Tests used:
# Assay in all cases: relative viability (nuclei count vs DMSO), 5 days (fraction); higher = more cells survive
# [1] = compound: O=C(NCCCNc1nc(Nc2cccc(NC(=O)N3CCCC3)c2)ncc1I)c1cccs1 [BX 795] + CC(=O)c1c(C)c2cnc(Nc3ccc(N4CCNCC4)cn3)nc2n(C2CCCC2)c1=O [Palbociclib] (partner 0.5 µM)
# How it was run: (§1)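 Relative viability is defined as nuclei in treated wells over nuclei in vehicle wells. Duplicate plates were run and medians reported. Lung cancer cell lines in 1536-well plates were dosed by pin tool one day after seeding, with one drug or with a fixed anchor-drug dose plus five library-drug doses (not always all listed) in √10 steps, and nuclei were counted after 5 days.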
# [2] = compound: O=C(NCCCNc1nc(Nc2cccc(NC(=O)N3CCCC3)c2)ncc1I)c1cccs1 [BX 795] + CS(=O)(=O)N1CCN(Cc2cc3nc(-c4cccc5[nH]ncc45)nc(N4CCOCC4)c3s2)CC1 [Pictilisib] (partner 1 µM)
# How it was run: as §1
# [3] = compound: O=C(NCCCNc1nc(Nc2cccc(NC(=O)N3CCCC3)c2)ncc1I)c1cccs1 [BX 795] + COc1cccc2cc(-c3nc([C@H]4CC[C@H](C(=O)O)CC4)n4ncnc(N)c34)[nH]c12 [OSI-027] (partner 0.5 µM)
# How it was run: as §1
# [4] = compound: O=C(NCCCNc1nc(Nc2cccc(NC(=O)N3CCCC3)c2)ncc1I)c1cccs1 [BX 795] + N=C(N)NC(=N)NCCc1ccccc1 [Phenformin] (partner 250 µM)
# How it was run: as §1
# [5] = compound: O=C(NCCCNc1nc(Nc2cccc(NC(=O)N3CCCC3)c2)ncc1I)c1cccs1 [BX 795] + CCNC(=O)c1noc(-c2cc(C(C)C)c(O)cc2O)c1-c1ccc(CN2CCOCC2)cc1 [Luminespib] (partner 0.01 µM)
# How it was run: as §1
Cell Line,relative viability ([1]; first compound 0.04 µM),relative viability ([1]; first compound 0.1265 µM),relative viability ([1]; first compound 0.4 µM),relative viability ([1]; first compound 1.265 µM),relative viability ([2]; first compound 0.04 µM),relative viability ([2]; first compound 0.1265 µM),relative viability ([2]; first compound 0.4 µM),relative viability ([2]; first compound 1.265 µM),relative viability ([3]; first compound 0.04 µM),relative viability ([3]; first compound 0.1265 µM),relative viability ([3]; first compound 0.4 µM),relative viability ([3]; first compound 1.265 µM),relative viability ([4]; first compound 0.04 µM),relative viability ([4]; first compound 0.1265 µM),relative viability ([4]; first compound 0.4 µM),relative viability ([4]; first compound 1.265 µM),relative viability ([5]; first compound 0.04 µM),relative viability ([5]; first compound 0.1265 µM),relative viability ([5]; first compound 0.4 µM),relative viability ([5]; first compound 1.265 µM)
NCI-H2170,0.364,0.395,0.394,0.381,0.3,0.283,0.283,0.249,0.725,0.643,0.791,0.674,0.46,0.383,0.446,0.413,0.83,0.541,0.39,0.544
NCI-H1395,0.627,0.612,0.426,0.498,0.673,0.562,0.461,0.533,0.635,0.686,0.482,0.498,0.471,0.462,0.458,0.431,0.641,0.634,0.471,0.555
ChaGo-K-1,0.889,0.929,0.928,0.705,0.615,0.52,0.735,0.776,0.632,0.553,0.548,0.432,0.449,0.471,0.494,0.472,0.503,0.523,0.602,0.492
LXF-289,0.671,0.595,0.638,0.579,0.844,0.77,0.879,0.649,0.793,0.898,0.959,0.681,0.464,0.529,0.582,0.467,0.707,0.693,0.828,0.51
EMC-BAC-2,0.536,0.52,0.512,0.432,0.533,0.488,0.479,0.415,0.413,0.404,0.377,0.273,0.473,0.489,0.469,0.301,1.18,1.22,1.13,0.492
NCI-H1755,0.493,0.43,0.458,0.441,0.442,0.418,0.35,0.305,0.711,0.74,0.794,0.552,0.618,0.564,0.592,0.546,0.635,0.412,0.283,0.388
LK-2,0.83,0.862,0.635,0.559,0.622,0.556,0.47,0.557,0.248,0.194,0.186,0.2,0.501,0.485,0.503,0.444,0.186,0.174,0.175,0.189
NCI-H2085,0.466,0.465,0.515,0.51,0.463,0.454,0.433,0.489,0.732,0.817,0.73,0.648,0.73,0.83,0.699,0.606,0.38,0.416,0.441,0.332
NCI-H838,0.231,0.234,0.197,0.172,0.449,0.425,0.382,0.326,0.386,0.338,0.379,0.303,0.494,0.538,0.425,0.214,0.255,0.292,0.226,0.181
LU99A,0.434,0.406,0.36,0.277,0.384,0.317,0.329,0.252,0.306,0.296,0.287,0.257,0.875,0.741,0.915,0.53,0.288,0.278,0.226,0.294
NCI-H2228,1.07,0.787,0.974,0.658,0.517,0.439,0.377,0.239,0.483,0.641,0.471,0.265,0.325,0.469,0.272,0.15,0.104,0.127,0.122,0.169
NCI-H3122,0.182,0.221,0.208,0.226,0.588,0.656,0.588,0.595,0.948,1.06,0.947,0.733,0.409,0.38,0.381,0.348,0.0821,0.114,0.0793,0.0891
NCI-H1650,0.394,0.328,0.319,0.289,0.698,0.576,0.517,0.498,0.687,0.703,0.53,0.414,0.484,0.417,0.393,0.239,0.212,0.191,0.206,0.189
NCI-H1734,0.404,0.377,0.35,0.354,0.463,0.471,0.411,0.368,0.536,0.592,0.555,0.419,0.419,0.375,0.402,0.307,0.173,0.209,0.154,0.149
LC-2-ad,0.476,0.493,0.408,0.483,0.471,0.387,0.333,0.202,0.841,0.767,0.867,0.658,0.585,0.5,0.48,0.41,1.16,1.03,0.938,0.662

# — the supplement of paper PMC10307832
